# Laboratory results: ChEMBL document CHEMBL5360529, “Pyrimidine derivatives with antitubercular activity” (Eur J Med Chem, 2023)
# Biological target: T1, Thymidylate kinase (Mycobacterium tuberculosis, UniProt P9WKE1)
# T1 sequence (P9WKE1 whole entry): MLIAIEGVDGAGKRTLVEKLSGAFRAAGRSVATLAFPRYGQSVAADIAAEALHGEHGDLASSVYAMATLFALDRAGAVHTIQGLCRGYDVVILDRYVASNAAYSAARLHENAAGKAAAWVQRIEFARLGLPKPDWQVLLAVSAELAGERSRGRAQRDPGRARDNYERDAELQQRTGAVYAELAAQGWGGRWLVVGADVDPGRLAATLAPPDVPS
# Test: Inhibition of recombinant Mycobacterium tuberculosis TMPK overexpressed in Escherichia coli assessed as inhibition constant by spectrophotometric assay
structure (smiles),measurement,value
Cc1cn(C/C=C\CN2c3cccc4cccc(c34)S2(=O)=O)c(=O)[nH]c1=O,Ki,270 nM
